Data on eleven compounds can be found in patent EP4201929A1, “QUINOXALINE THIOREDOXIN REDUCTASE INHIBITORS” (geneXplain GmbH, priority 2021, dated 2023).

One data set in a line: Solubility (solvent). It counts as physicochemical. The note with it: solvent named in the table.
The next data set concerns HCT116-Cas9. Nature of the data set: Growth suppression assay (resazurin). The note with it: 48 hours of incubation. It is filed as cell-based. As for the experimental part: (§1) Breast, colon, ovarian, cervical, liver and lung carcinoma cell lines were grown in DMEM supplemented with 10% FBS, and antibiotics were cultured at 37 °C and 5% CO2. […] To obtain an oxygen concentration of 0.05%, the cells were flushed with the premixed gas continuously throughout the experiment.
(§2) Cells were grown in 96-well plates at a density of 3000 cells per well with or without doxycycline and treated with compounds. After 48 hours of incubation the proliferative cell reagent resazurin (Thermo Fisher Scientific) was added to the cells. The degree of resazurin reduction, which reflects cell viability, was measured by microplate reader by monitoring the absorbance at 570 nm and 600 nm, according to the manufacturer.

In the next data set the test system is MCF7-Cas9. In words: Growth suppression assay (resazurin). It counts as cell-based. The note with it: 48 hours of incubation. As for the experimental part:
as §1, §2
On the technique in general: Alamar Blue is a resazurin reagent that responds to reducing activity.

For another data set, the target named is TrxRl (Homo sapiens, UniProt Q16881). The note with it: cell extracts and crystal structure of tetrameric TrxRl; earlier publication of the applicants; cited from earlier work.

Structures can show the parent of a compound that is named as a salt. Bounds are passed on as bounds.

TrxRl, sequence (Q16881 151-649): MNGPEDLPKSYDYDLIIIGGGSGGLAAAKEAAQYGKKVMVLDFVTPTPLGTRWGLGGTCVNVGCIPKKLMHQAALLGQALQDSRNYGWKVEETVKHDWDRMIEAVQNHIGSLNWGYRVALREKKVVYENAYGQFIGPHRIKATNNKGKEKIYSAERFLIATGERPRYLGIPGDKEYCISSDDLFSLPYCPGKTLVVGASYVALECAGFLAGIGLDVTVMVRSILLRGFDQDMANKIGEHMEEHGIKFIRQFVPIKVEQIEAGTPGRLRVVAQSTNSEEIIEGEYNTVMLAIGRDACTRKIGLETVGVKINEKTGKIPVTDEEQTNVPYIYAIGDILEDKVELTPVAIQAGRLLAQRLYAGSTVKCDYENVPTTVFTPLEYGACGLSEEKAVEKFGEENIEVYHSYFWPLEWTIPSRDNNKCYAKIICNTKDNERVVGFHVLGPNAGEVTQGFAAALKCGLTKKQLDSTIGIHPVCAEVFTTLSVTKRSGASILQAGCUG

Turning to `N#Cc1c(-c2cccnc2)[n+]([O-])c2cc(F)c(N3CCCC3)cc2[n+]1[O-]` [Compound 1f, 6-Fluoro-7-(pyrrolidin-1-yl)-3-(pyridin-3-yl)quinoxaline-2-carbonitrile-1,4-dioxide], the Solubility result in the data set “Solubility (solvent)” is “Warm DMSO”. The IC50 (usually the concentration that gives 50% inhibition) came out at 2.2 µM with HCT116-Cas9 (48 h) and 3.8 µM in the data set with MCF7-Cas9 (48 h).

In the case of `N#Cc1c(-c2cccnc2)[n+]([O-])c2cc(N3CCOCC3)c(F)cc2[n+]1[O-]` [1c*HCl, 7-Fluoro-6-(morpholin-4-yl)-3-(pyridin-3-yl)quinoxaline-2-carbonitrile-1,4-dioxide hydrochloride], the IC50 is 10.9 µM in the data set with HCT116-Cas9 (hydrochloride) and over 10 µM with MCF7-Cas9 (48 h).

Take `N#Cc1c(-c2ccncc2)[n+]([O-])c2cc(N3CCOCC3)c(F)cc2[n+]1[O-]` [1a*MsOH, 7-Fluoro-6-(morpholin-4-yl)-3-(pyridin-4-yl)quinoxaline-2-carbonitrile-1,4-dioxide methanesulfonate]: the IC50 in the data set on HCT116-Cas9 (methanesulfonate) is 1.2 µM; in the data set on MCF7-Cas9 (methanesulfonate), 2.4 µM.

`OCc1ccc(-c2ccc(-c3ccc(CO)s3)o2)s1` [RITA]: the “covalent link between TrxRl subunits” value at TrxRl is recorded as “induced the formation of a covalent link between two oxidized Trp114 residues”.

Consider `N#Cc1c(-c2ccncc2)[n+]([O-])c2cc(F)c(N3CCOCC3)cc2[n+]1[O-]` [Compound 1b, 6-Fluoro-7-(morpholin-4-yl)-3-(pyridin-4-yl)quinoxaline-2-carbonitrile-1,4-dioxide], for which, in “Solubility (solvent)”, the Solubility entry was “Warm DMSO”. In addition, the IC50 is 2.8 µM in the data set on HCT116-Cas9 (48 h) and 4.1 µM in the data set on MCF7-Cas9 (48 h).

In the case of `N#Cc1c(-c2ccncc2)[n+]([O-])c2cc(N3CCOCC3)c(F)cc2[n+]1[O-]` [Compound 1a, 7-Fluoro-6-(morpholin-4-yl)-3-(pyridin-4-yl)quinoxaline-2-carbonitrile 1,4-dioxide], the Solubility entry in “Solubility (solvent)” is recorded as “Warm DMSO”. Moreover, the figures for the IC50 with HCT116-Cas9 and with MCF7-Cas9 were 3.5 µM and 6.9 µM, respectively.

`N#Cc1c(-c2cccnc2)[n+]([O-])c2cc(F)c(N3CCOCC3)cc2[n+]1[O-]` [Compound 1d, 6-Fluoro-7-(morpholin-4-yl)-3-(pyridin-3-yl)quinoxaline-2-carbonitrile-1,4-dioxide]: the Solubility entry in “Solubility (solvent)” is on record as “Warm DMSO”. In the data set on HCT116-Cas9, this compound came in with an IC50 of 4.1 µM.

For `N#Cc1c(-c2ccncc2)[n+]([O-])c2cc(F)c(N3CCOCC3)cc2[n+]1[O-]` [1b*HCl, 6-Fluoro-7-(morpholin-4-yl)-3-(pyridin-4-yl)quinoxaline-2-carbonitrile-1,4-dioxide hydrochloride], the values for the IC50 with HCT116-Cas9 (hydrochloride) and in the data set on MCF7-Cas9 (hydrochloride) were 3.2 µM and 3.8 µM, respectively.

Consider `N#Cc1c(-c2cccnc2)[n+]([O-])c2cc(F)c(N3CCCCC3)cc2[n+]1[O-]` [Compound 1g, 6-Fluoro-7-(piperidin-1-yl)-3-(pyridin-3-yl)quinoxaline-2-carbonitrile-1,4-dioxide], for which the Solubility entry in “Solubility (solvent)” was “Warm DMSO”. The IC50 was 2.8 µM in the data set on HCT116-Cas9 (48 h) and 4.1 µM in the data set on MCF7-Cas9 (48 h).

Take `N#Cc1c(-c2ccncc2)[n+]([O-])c2cc(F)c(N3CCOCC3)cc2[n+]1[O-]` [1b*MsOH, 6-Fluoro-7-(morpholin-4-yl)-3-(pyridin-4-yl)quinoxaline-2-carbonitrile-1,4-dioxide methanesulfonate]: the IC50 with MCF7-Cas9 (methanesulfonate) came to 4.2 µM.

`N#Cc1c(-c2cccnc2)[n+]([O-])c2cc(N3CCOCC3)c(F)cc2[n+]1[O-]` [Compound 1c, 7-Fluoro-6-(morpholin-4-yl)-3-(pyridin-3-yl)quinoxaline-2-carbonitrile-1,4-dioxide]: the Solubility entry in the data set “Solubility (solvent)” is listed as “Warm DMSO”. The compound also came in with an IC50 with HCT116-Cas9 of 3.3 µM.
